Measured values published in patent publication US10196398B2, “Pesticidally active tetracyclic derivatives with sulfur containing substituents” (Syngenta Participations AG, priority 2014, dated 2019).
Like-named read-outs stand apart in the source and are kept apart here.

Tests used:
Type in all cases: in vivo
Euschistus heros = experiment: Example B2: Euschistus heros (neotropical brown stink bug), sprayed soybean leaves; conditions: 120 h, read-out: effect in at least one of the two categories (mortality or growth inhibition)
Experimental: Example B2: Euschistus heros(Neotropical Brown Stink Bug)
Soybean leaves on agar in 24-well microtiter plates were sprayed with aqueous test solutions prepared from 10′000 ppm DMSO stock solutions. After drying the leaves were infested with N2 nymphs. The samples were assessed for mortality and growth inhibition in comparison to untreated samples 5 days after infestation.

Diabrotica balteata = experiment: Example B1: Diabrotica balteata (corn root worm), sprayed maize sprouts; conditions: 96 h, read-out: effect in at least one of the two categories (mortality or growth inhibition)
Experimental: Example B1: Diabrotica balteata (Corn Root Worm)
Maize sprouts placed onto an agar layer in 24-well microtiter plates were treated with aqueous test solutions prepared from 10′000 ppm DMSO stock solutions by spraying. After drying, the plates were infested with L2 larvae (6 to 10 per well). The samples were assessed for mortality and growth inhibition in comparison to untreated samples 4 days after infestation.

Plutella xylostella = experiment: Example B5: Plutella xylostella (diamond back moth), artificial diet; conditions: 120 h, read-out: effect in at least one of the two categories (mortality or growth inhibition)
Experimental: Example B5: Plutella xylostella (Diamond Back Moth)
24-well microtiter plates with artificial diet were treated with aqueous test solutions prepared from 10′000 ppm DMSO stock solutions by pipetting. After drying, the plates were infested with L2 larvae (10 to 15 per well). The samples were assessed for mortality and growth inhibition in comparison to untreated samples 5 days after infestation.

Spodoptera littoralis [1] = experiment: whole plant or invertebrate; conditions: in Gossypium barbadense, 144 h, read-out: effect in at least one of the three categories (mortality, anti-feeding, or growth inhibition)
From the text: (§1) Example B6: Spodoptera littoralis (Egyptian Cotton Leaf Worm)
Test compounds were applied by pipette from 10′000 ppm DMSO stock solutions into 24-well plates and mixed with agar. Lettuce seeds were placed onto the agar and the multi well plate was closed by another plate which contained also agar. After 7 days the compound was absorbed by the roots and the lettuce grew into the lid plate. The lettuce leaves were then cut off into the lid plate. Spodoptera eggs were pipetted through a plastic stencil onto a humid gel blotting paper and the lid plate was closed with it. The samples were assessed for mortality, anti-feedant effect and growth inhibition in comparison to untreated samples 6 days after infestation.

Myzus persicae [2] = experiment: Example B3: Myzus persicae (green peach aphid), feeding/contact activity; conditions: 144 h
Experimental: Example B3: Myzus persicae (Green Peach Aphid):Feeding/Contact Activity
Sunflower leaf discs were placed onto agar in a 24-well microtiter plate and sprayed with aqueous test solutions prepared from 10′000 ppm DMSO stock solutions. After drying, the leaf discs were infested with an aphid population of mixed ages. The samples were assessed for mortality 6 days after infestation.

Spodoptera littoralis [3] = experiment: whole plant or invertebrate; conditions: foliar, 72 h, read-out: control (mortality, anti-feeding effect, or growth inhibition)
Experimental: as §1
Cotton leaf discs were placed onto agar in 24-well microtiter plates and sprayed with aqueous test solutions prepared from 10′000 ppm DMSO stock solutions. After drying the leaf discs were infested with five L1 larvae. The samples were assessed for mortality, anti-feeding effect, and growth inhibition in comparison to untreated samples 3 days after infestation. Control of Spodoptera littoralis by a test sample is given when at least one of the categories mortality, anti-feedant effect, and growth inhibition is higher than the untreated sample.

[4] = system: Frankliniella occidentalis; experiment: Example B7: Frankliniella occidentalis (western flower thrips), feeding/contact activity; conditions: 168 h, application rate of 200 ppm, population of mixed ages, 7 days after infestation
Experimental: Example B7: Frankliniella occidentalis (Western Flower Thrips):Feeding/Contact Activity
(§2) Sunflower leaf discs were placed on agar in 24-well microtiter plates and sprayed with aqueous test solutions prepared from 10′000 DMSO stock solutions. After drying the leaf discs were infested with a Frankliniella population of mixed ages. The samples were assessed for mortality 7 days after infestation.

Myzus persicae [5] = experiment: Example B4: Myzus persicae (green peach aphid), systemic activity; conditions: 144 h, test rate of 24 ppm, roots of pea seedlings in test solution, 6 days
Experimental: Example B4: Myzus persicae (Green Peach Aphid). Systemic Activity
Roots of pea seedlings infested with an aphid population of mixed ages were placed directly into aqueous test solutions prepared from 10′000 DMSO stock solutions. The samples were assessed for mortality 6 days after placing seedlings into test solutions.

Thrips tabaci = experiment: Example B8: Thrips tabaci (onion thrips), feeding/contact activity; conditions: 144 h, application rate of 200 ppm, population of mixed ages, 6 days after infestation
Experimental: Example B8: Thrips tabaci (Onion Thrips) Feeding/Contact Activity
as §2, with “10′000 ppm” for “10′000”, “thrips” for “Frankliniella”, “6” for “7”

CCS(=O)(=O)c1cc2ccccc2nc1-c1cn2cnc(C(F)(F)F)cc2n1 [Compound P1, 3-ethylsulfonyl-2-[7-(trifluoromethyl)imidazo[1,2-c]pyrimidin-2-yl]quinolone]
≥ 80%: percent control (mortality or growth inhibition) at 200 ppm (Euschistus heros) | percent control (mortality or growth inhibition) at 200 ppm (Diabrotica balteata) | percent control (mortality or growth inhibition) at 200 ppm (Plutella xylostella) | percent control (mortality, anti-feedant effect or growth inhibition) at 12.5 ppm (Spodoptera littoralis [1]) | mortality at 200 ppm (Myzus persicae [2]) | percent control (mortality, anti-feedant effect or growth inhibition) at 200 ppm (Spodoptera littoralis [3])

CCS(=O)(=O)c1cc2c(cc1-c1cn3cnc(C(F)(F)F)cc3n1)nc(C(F)(F)F)n2C [Compound P2, 2-[6-ethylsulfonyl-1-methyl-2-(trifluoromethyl)benzimidazol-5-yl]-7-(trifluoromethyl)imidazo[1,2-c]pyrimidine]
≥ 80%: percent effect (mortality or growth inhibition) at 200 ppm (Euschistus heros; application rate of 200 ppm, N2 nymphs, 5 days after infestation) | percent effect (mortality or growth inhibition) at 200 ppm (Diabrotica balteata; application rate of 200 ppm, L2 larvae, 4 days after infestation) | percent effect (mortality or growth inhibition) at 200 ppm (Plutella xylostella; application rate of 200 ppm, L2 larvae, 5 days after infestation) | mortality at 200 ppm [4] | mortality at 200 ppm (Myzus persicae [2]; application rate of 200 ppm, aphid population of mixed ages, 6 days after infestation, read-out: mortality) | mortality at 24 ppm (Myzus persicae [5]) | mortality at 200 ppm (Thrips tabaci)
